Assay results taken from patent US12728112B2, “Application of sesquiterpene lactone in preparing drug for treating optic neuritis” (ACCENDATECH LUOYANG CO., LTD., priority 2020, dated 2026).
“Also recorded” adds a separate entry of the source.

What was measured:
[1] = test system: BV2 cells; experiment: Proliferation activity of microglial cell BV2 (MTT and CCK8 methods); format: cell-based; conditions: Mus musculus
Description: We then intended to use ACT001 for treating neuromyelitis optica.

[2] = test system: IL-6 release by LPS-activated BV-2 cells; experiment: IL-6 release/expression after LPS activation of BV-2 (ELISA); format: cell-based; conditions: for IL-6 expression in BV-2 cells: 1 μg/mL LPS
Procedure: (§1) BV2 cells were digested, counted and plated in a 24-well plate at 1 mL and 20,000 cells per well, and the cells were then incubated overnight in an incubator at 5% CO2 and 37° C. 1 μg/mL LPS was added into each well for 1 h of action, and then ACT001 at different concentrations was added. Five experimental groups were set, namely: (1) control group; (2) ACT001-2.5 μM group; (3) ACT001-5 μM group; (4) ACT001-10 μM group; and (5) ACT001-20 μM group. After 8 h of action, the drug action was completed, the supernatant was collected and centrifuged at 12,000 rpm for 20 min, and then ELISA was performed according to the kit instructions.
as §1, with “40,000” for “20,000”, “24” for “8”

[3] = test system: TNF-α release by LPS-activated BV-2 cells; experiment: TNF-α release/expression after LPS activation of BV-2 (ELISA); format: cell-based; conditions: for TNF-α expression in BV-2 cells: 1 μg/mL LPS
Procedure: as §1, with “40,000” for “20,000”, “24” for “8”

[4] = test system: NO release by LPS-activated BV-2 cells; experiment: NO release after LPS activation of BV-2; format: cell-based
Description: 5. FIG. 5 is a graph showing the effect of ACT001 on NO expression (*P<0.05, ** P<0.01, *** P<0.001).

[5] = test system: Lewis rat NMO disease models; experiment: NMO animal model: NMO patient serum and complement injected intrathecally, behavioral scoring; format: in vivo; conditions: for Behavioral score: intragastric daily, ACT001 60 mg/kg, hormone 30 mg/kg
Procedure: Meanwhile, before establishing NMO animal models, firstly, the spinal intrathecal catheterization was performed on Lewis rats, wherein an outlet could be placed at the spinal cord and at the first lumbar vertebra of the rat by controlling the length (7 cm) of a PE10 soft tube. For the Lewis rats after spinal intrathecal catheterization, they had no difference in behavior from normal rats the next day after the operation. Successfully modeled rats were divided into three groups, and 10 μL of each of the serum and complement system of an NMO patient was injected into the soft tubes in the rats for which the intubation was successful, and the supplementation was performed every four days. The administration regimen was as follows: the model control group (6 animals) was intragastrically administered normal saline every day for 15 consecutive days; the hormone group (8 animals) was intragastrically administered the methylprednisolone […] for injection every day at a dose of 30 mg/kg for 15 consecutive days; and the ACT001 group (6 animals) was intragastrically administered the ACT001 solution every day at a dose of 60 mg/kg for 15 consecutive days. The animal state was observed daily, and behavioral scores were recorded based on animal symptoms.
10 μL of each of the serum and complement system of an NMO patient was injected into the soft tubes in the rats for which the spinal intrathecal catheterization was successful, and the supplementation was performed every four days, thus establishing the NMO animal models. Model animals were randomized into three groups, namely: the normal saline group, the hormone (methylprednisolone sodium succinate for injection) group and the ACT001 group, and the administration regimen is as follows:
Behavioral scoring was performed based on animal symptoms.
The scoring criteria were as follows: • 0 point: no clinical symptoms; • 1 point: decreased tail tension or mild gait clumsiness; • 2 points: no tail tension or moderate gait abnormality; weakness of both hind limbs and recovery after being turned over passively; • 3 points: paralysis of both hind limbs. no recovery after being turned over passively, but capable of moving after stimulation; • 4 points: paralysis of both hind limbs. paralysis or weakened muscle strength of the forelimbs with urinary and fecal incontinence; • 5 points: moribund state or dead.
Symptoms between two stages were measured as ±0.5.

[6] = LPS-activated BV-2, ACT001 10 μM, vs control group, fumarate
[7] = LPS-stimulated microglial cells, concentration not given, fumarate

SMILES | Behavioral score ([5]; day 0 of treatment) [points] | Behavioral score ([5]; day 1 of treatment) [points] | Behavioral score ([5]; day 2 of treatment) [points] | Behavioral score ([5]; day 3 of treatment) [points] | Behavioral score ([5]; day 4 of treatment) [points] | Behavioral score ([5]; day 5 of treatment) [points] | Behavioral score ([5]; day 6 of treatment) [points] | Behavioral score ([5]; day 7 of treatment) [points] | Behavioral score ([5]; day 8 of treatment) [points] | Behavioral score ([5]; day 9 of treatment) [points] | Behavioral score ([5]; day 10 of treatment) [points] | Behavioral score ([5]; day 11 of treatment) [points] | Behavioral score ([5]; day 12 of treatment) [points] | Behavioral score ([5]; day 13 of treatment) [points] | Behavioral score ([5]; day 14 of treatment) [points] | also measured
CC1=C2CC[C@@](C)(O)[C@@H]2[C@H]2OC(=O)[C@@H](CN(C)C)[C@@H]2CC1.O=C(O)/C=C/C(=O)O [ACT001, (3R,3aS,9R,9aS,9bS)-3-((dimethylamino)methyl)-9-hydroxy-6,9-dimethyl-3,3a,4,5,7,8,9,9a-octahydroazuleno[4,5-b]furan-2(9bH)-one fumarate] | 0.00 ± 0.00 | 0.42 ± 0.20 | 0.17 ± 0.26 | 0.17 ± 0.26 | 0.00 ± 0.00 | 1.17 ± 0.68 | 1.00 ± 0.45 | 0.83 ± 0.68 | 0.33 ± 0.26 | 2.08 ± 0.86 | 1.25 ± 0.61 | 0.50 ± 0.00 | 2.00 ± 0.32 | 1.92 ± 0.38 | 1.17 ± 0.26 | IC50 ([1]; BV-2, MTT/CCK8, read-out: IC50, inhibition of proliferation of BV2 cells): 23.6 µM; IC90 ([1]; BV-2, read-out: IC90, in vitro activity inhibition against BV2 cells): 99.1 ± 10.2 µM; IL-6 expression in BV-2 cells ([2]; ACT001 20 μM, p<0.001 vs control): significantly reduced; IL-6 expression in BV-2 cells ([2]; all ACT001 groups (2.5, 5, 10, 20 μM), dose-dependent trend): reduce IL-6 expression; release/expression of IL-6 [2, 6]: remarkably reduce; also recorded: significantly reduced; release of IL-6 [2, 7]: significantly reduced; TNF-α expression in BV-2 cells ([3]; ACT001 2.5, 5 and 10 μM dose groups, dose-dependent trend (FIG. 4)): reduce TNF-α expression; TNF-α expression in BV-2 cells ([3]; all ACT001 dose groups (2.5-20 μM), p<0.001 vs control (text on FIG. 3)): significantly reduced; release/expression of TNF-α [3, 6]: remarkably reduce; also recorded: significantly reduced; release of TNF-α [3, 7]: significantly reduced; pathological release of microglial cells NO ([4]; ACT001 5 μM (FIG. 5)): significantly could reduce; release of NO ([4]; LPS-activated microglia, ACT001 10 μM): remarkably reduce; release of NO [4, 7]: significantly reduced; tolerance of animals during administration ([5]; ACT001 60 mg/kg intragastric daily, 15 days): well tolerated; disease symptoms / behavioral scores compared to the normal saline control group ([5]; ACT001 60 mg/kg intragastric daily, 15 days, fumarate, 60 mg/kg): significantly alleviated; also recorded: significantly reduce the behavioral scores; also recorded: significantly relieve clinical symptoms; effect compared to the hormone treatment group ([5]; ACT001 60 mg/kg vs methylprednisolone 30 mg/kg, intragastric, 15 days, fumarate): not weaker than that of hormone; also recorded: basically equivalent; Behavioral score ([5]; day 15 of treatment, fumarate): 2.00±0.32 points
C[C@H]1C[C@@H]2[C@H]([C@@H](O)C[C@@]3(C)[C@H]2CC[C@]3(O)C(=O)COC(=O)CCC(=O)O)[C@@]2(C)C=CC(=O)C=C12 [Hormone, methylprednisolone sodium succinate, reference compound] | 0.00 ± 0.00 | 0.63 ± 0.64 | 0.50 ± 0.38 | 0.44 ± 0.32 | 0.13 ± 0.23 | 1.75 ± 0.46 | 0.88 ± 0.23 | 0.63 ± 0.35 | 0.38 ± 0.23 | 2.06 ± 0.42 | 2.06 ± 0.42 | 0.88 ± 0.35 | 2.19 ± 0.26 | 2.19 ± 0.59 | 1.00 ± 0.38 | Behavioral score (Table 3, major research results) ([5]; 20 Lewis rats, female, intragastrically once daily for 15 times): group was 2.0 ± 0.3. points; Behavioral score ([5]; day 15 of treatment): 2.31 ± 0.26 points; Behavioral score ([5]; day 15 of treatment, listed as hormone): 2.31±0.26 points
